Patent US20040176468A1 (Wyeth, priority 1999, published 2004)
Counter-ions that a name gives are not always drawn.

Target: NE uptake (Rattus norvegicus, UniProt Q63380)
Assay: Neurotransmitter uptake inhibition: NE uptake, crude synaptosomal preparation
Type: biochemical
Details: rat cortex crude synaptosomal preparation; for IC50: 0.1 μM 3H-NE, 37° C. for 6 minutes
Procedure: Male Sprague-Dawley rats (180-260 g, Charles River) were used in all neurochemical assays. Rats were housed in temperature-controlled quarters on a 12 hr light/12 hr dark cycle with free access to food and water.
Neurotransmitter Uptake Inhibition
Uptake experiments were performed using a crude synaptosomal preparation made from the brain tissue of adult male Sprague-Dawley rats. The cortex of 1 rat for NE and 5-HT uptake was removed on ice and homogenized in 20 volumes of 0.32 M sucrose/g tissue weight using a Potter-Elvehjem teflon homogenizer (3 strokes at 840 rpm). The homogenate was then centrifuged for 12 minutes at 1,000×g at 0-4° C. The resulting supernatant was decanted into a chilled glass beaker and kept on ice until assayed. Protein concentration was determined by the method of Lowry et al. (1).
For these experiments, all compounds were run in duplicate in concentrations of 0.003-30.0 μM. Each tube received buffer (790 μl in drug tubes, 800 μl in control tubes), 10 μl of drug or standard. (0.1 μM DMI for NE uptake and 3.0 μM zimelidine HCl for 5-HT uptake), 100 μl isotope (0.1 μM ^3H—NE and 0.05 μM ^14C-5-HT), and 100 μl tissue. Tubes were incubated at 37° C. for 6 minutes. Incubation was terminated by the addition of 2.5 ml buffer followed by vacuum filtration using a Brandel filtration manifold with Whatman GF/B glass fiber filters and a second wash with 2.5 ml buffer. Filters were added to 10 ml Hydrofluor, shaken for 15 minutes and counted in a Packard 460CD scintillation counter equipped with dual-label dpm data reduction. Results were expressed as pmol uptake/mg protein/min.

Chain of NE uptake (Q63380 1-617): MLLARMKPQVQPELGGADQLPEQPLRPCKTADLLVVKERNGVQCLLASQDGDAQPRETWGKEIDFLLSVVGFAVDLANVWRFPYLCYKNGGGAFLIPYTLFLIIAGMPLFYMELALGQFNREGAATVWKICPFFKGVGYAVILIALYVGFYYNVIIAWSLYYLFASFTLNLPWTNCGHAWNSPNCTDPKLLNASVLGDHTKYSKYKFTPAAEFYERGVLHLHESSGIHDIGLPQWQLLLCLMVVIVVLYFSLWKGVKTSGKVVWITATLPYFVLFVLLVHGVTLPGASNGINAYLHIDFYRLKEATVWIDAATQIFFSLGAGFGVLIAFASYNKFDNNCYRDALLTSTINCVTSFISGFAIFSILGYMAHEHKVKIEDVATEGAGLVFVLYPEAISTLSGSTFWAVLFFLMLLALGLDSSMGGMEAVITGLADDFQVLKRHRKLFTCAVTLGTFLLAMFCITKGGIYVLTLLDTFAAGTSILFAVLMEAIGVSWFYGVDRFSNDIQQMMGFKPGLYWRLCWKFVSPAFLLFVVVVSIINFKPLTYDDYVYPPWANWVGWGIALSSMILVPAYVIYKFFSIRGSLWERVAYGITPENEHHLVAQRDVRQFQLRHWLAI

Structure (SMILES) | IC50 [nM] | inhibition at 0.3 µM (at 0.3 μM) [%]
CN(C)C[C@H](c1ccc(O)cc1)C1(O)CCCCC1 [(+)O-Desmethyl venlafaxine, S (+)-4-[2-(Dimethylamino)-1-(1-hydroxycyclohexyl)ethyl]phenol fumarate hydrate salt] | 720 | 
CN(C)CC(c1ccc(O)cc1)C1(O)CCCCC1 (racemic) [O-Desmethyl venlafaxine, 4-[1-(2-dimethylamino)-2-(1-hydroxycyclohexyl)-ethyl]-phenol] |  | 75
CN(C)C[C@@H](c1ccc(O)cc1)C1(O)CCCCC1 [(−)O-Desmethyl venlafaxine, R(−)-4-[2-(Dimethylamino)-1-(1-hydroxycyclohexyl)ethyl]phenol fumarate hydrate salt] | 270 | 
